Where a SMILES comes first, the peptide text is derived from it.
Tested on: HepG2 cells
Experiment: MTT assay, cell proliferation viability of normal HepG2 cells
Format: cell-based
Conditions: 256 μM, FIG. 5A
Experimental: i) MTT (also referred to as thiazole blue) assay is used to detect the effects of various components (LPH-I, LPH-II and LPH-III) on the cell proliferation viability of normal HepG2 cells: HepG2 cells in logarithmic growth period are taken and prepared into a cell suspension of 4×10^5 cells/mL with the high glucose DMEM medium containing 10% FBS. Sample wells are set in a 96-well plate, and 100 μL of cell suspension is added to each sample well, and the cells are cultured in a cell incubator for 24 hours to adhere to the wall. After removing the culture medium from the sample wells, the components LPH-I (>10 kDa), LPH-II (3-10 kDa) and LPH-III (<3 kDa) are respectively dissolved in the high glucose DMEM culture medium containing 10% FBS to prepare an oligopeptide culture medium with a concentration of 150 μg/mL, and then added to each sample well, with a volume of 100 μL per well. A blank well is set, no cells are present compared with the sample wells, and 100 μL PBS phosphate buffer (1×, pH 7.2) is used to replace the oligopeptide culture medium. A control well is set with cells compared with the sample wells, and 100 μL PBS phosphate buffer (1×, pH 7.2) is used to replace the oligopeptide culture medium. […] The absorbance is measured at 570 nanometers (nm) wavelength in a microplate reader. […]

Q: `C[C@H](N)C(=O)N[C@@H](Cc1ccc(O)cc1)C(=O)N1CCC[C@H]1C(=O)N[C@@H](Cc1ccccc1)C(=O)O` [AYPF] (H-AYPF-OH; N-terminus and C-terminus assumed) was tested. Which “effect on the cell viability” value did it give?
A: a certain effect

— patent US12077797B2, “Oligopeptide with lipid-lowering activity, preparation method and application thereof” (Nanjing University of Finance and Economics, priority 2022, dated 2024)
